Experimental findings from US5475132A, “Antifungal agents based on amides containing a phenyl group” (Rhone-Poulenc Agrochimie, priority 1988, dated 1995) are described below.

This assay relates to Phytophthora citrophthora. In words: Example B3: action on phytopathogenic soil fungi, growth on agar in Petri dishes. In kind it is cell-based. The following applies: 120 h, 30 ppm, agar medium, 22° C., 5 days, read-out: inhibition of the development of the fungus.

In the case of `COc1ccc(-c2c(C(=O)N3CCOCC3)sc3ccc(I)cc23)cc1OC` [Compound 101, 2-(4-morpholinocarbonyl)-5-iodo-3-(3,4-dimethoxyphenyl)benzothiophene], the inhibition at 30 ppm is not below 80%.
On to `COc1ccc(-c2c(C(=O)N3CCOCC3)sc3ccc(NC(=O)c4ccc(Cl)cc4)cc23)cc1OC` [Compound 102, 2-(4-Morpholinocarbonyl)-5-(4-chlorobenzoylamino)-3-(3,4-dimethoxyphenyl)benzothiophene], for which the inhibition at 30 ppm is not below 80%.
Consider `COc1ccc(-c2c(C(=O)N3CCOCC3)sc3ccc([N+](=O)[O-])cc23)cc1OC` [Compound 104, 2-(4-Morpholinocarbonyl)-5-nitro-3-(3,4-dimethoxyphenyl)benzothiophene], for which the inhibition at 30 ppm was not below 80%.
Regarding `C=C(C)c1ccc2sc(C(=O)N3CCOCC3)c(-c3ccc(OC)c(OC)c3)c2c1` [Compound 105, 2-(4-Morpholinocarbonyl)-5-(propen-2-yl)-3-(3,4-dimethoxyphenyl)benzothiophene], the inhibition at 30 ppm was not below 80%.
As for `CCN(CC)C(=O)c1sc2ccccc2c1-c1ccc(OC)c(OC)c1` [Compound 107, 2-(N,N-Diethylcarboxamide)-3-(3,4-dimethoxyphenyl)benzothiophene], the inhibition at 30 ppm is not below 80%.
To `COc1ccc(C2=C(C(=O)N3CCOCC3)C(O)c3ccccc32)cc1OC` (centres unmarked) [Compound 110, 1-(3,4-Dimethoxyphenyl)-2-morpholinocarbonyl-3-hydroxyindene] belongs not below 80%; to `COc1ccc2c(c1)CC(C(=O)N1CCOCC1)=C2c1ccc(OC)c(OC)c1` [Compound 111, 2-Morpholinocarbonyl-3-(3,,4-dimethoxyphenyl)-6-mehoxyindene], not below 80%; to `COc1ccc(C2=C(C(=O)N3CCOCC3)Cc3cc(OC)c(OC)cc32)cc1OC` [Compound 112, 2-Morpholinocarbonyl-3-(3,4-dimethoxyphenyl)-5,6-methoxyindene], not below 80%.
To `COc1ccc(-c2c(C(=O)N3CCOCC3)sc3ccc(Cl)cc23)cc1OC` [Compound 113] belongs not below 80%; to `COc1ccc(-c2c(C(=O)N3CCOCC3)sc3ccc(Br)cc23)cc1OC` [Compound 114], not below 80%.
With `COc1ccc(-c2c(C(=O)N3CCOCC3)sc3ccc(NC(C)=O)cc23)cc1OC` [Compound 115], the inhibition at 30 ppm was not below 80%.
With `COc1ccc(-c2c(C(=O)N3CCOCC3)sc3ccc(NC(=O)C(F)(F)F)cc23)cc1OC` [Compound 116], the inhibition at 30 ppm is not below 80%.
As for `COc1ccc(-c2c(C(=O)N3CCOCC3)sc3ccc(F)cc23)cc1OC` [Compound 117], the inhibition at 30 ppm was not below 80%.
Turning to `COc1ccc(-c2c(C(=O)N3CCOCC3)sc3ccccc23)cc1OC` [Compound 118], the inhibition at 30 ppm was not below 80%.
Regarding `COc1ccc(-c2c(C(=O)N3CCOCC3)sc3c(N)cccc23)cc1OC` [Compound 121], the inhibition at 30 ppm is not below 80%.
To `COc1ccc(-c2c(C(=O)N3CCOCC3)sc3c(F)cccc23)cc1OC` [Compound 122] belongs not below 80%.
The figure for `COc1ccc(-c2c(C(=O)N3CCOCC3)sc3c(Br)cccc23)cc1OC` [Compound 123] is not below 80%; for `COc1ccc(-c2c(C(=O)N3CCOCC3)sc3c(Cl)cccc23)cc1OC` [Compound 124] it is not below 80%.
As to `COc1ccc(-c2c(C(=O)N3CCOCC3)sc3cc(Cl)ccc23)cc1OC` [Compound 125], the inhibition at 30 ppm is not below 80%.
Take `COc1ccc(-c2c(C(=O)N3CCOCC3)sc3c(-c4ccccc4)cccc23)cc1OC` [Compound 126]: the inhibition at 30 ppm is not below 80%.
Turning to `COc1ccc(-c2c(C(=O)N3CCOCC3)sc3c(C)cccc23)cc1OC` [Compound 127], the inhibition at 30 ppm was not below 80%.
The figure for `COc1ccc(-c2c(C(=O)N3CCOCC3)sc3cccc(Cl)c23)cc1OC` [Compound 128] is not below 80%.
Take `COc1ccc(-c2c(C(=O)N3CCOCC3)sc3cccc(F)c23)cc1OC` [Compound 129]: the inhibition at 30 ppm was not below 80%.
